8 compounds from paper PMC9797896 (Medicinal Chemistry Research, 2022) can be followed below.

Where “and” joins values, the source holds several entries; their conditions need not be identical. Identical values can stand only once. Like-named read-outs stand apart in the source and are kept apart here.

The subject of the experiment is SARS-CoV-2 (Omicron variant, B.1.1.529/BA.2 sublineage). As to the kind of experiment: microbe, parasite or virus in culture. In kind it is cell-based. As to conditions: for EC50 / EC90: Severe acute respiratory syndrome coronavirus 2, Vero C1008, 48 h; for EC90: read-out: 90% Reduction in Infectious Virus (EC90); for time to maximal effectiveness against the Omicron variant particles: after starting administration and treatment.

Setting [1] is: read-out: 50% Reduction in Infectious Virus (EC50).
Setting [2] is: read-out: 50% Reduction in Viral RNA Copy (EC50).

A word on the EC50: it is the concentration needed to bring the measured effect to its halfway point. The term EC90 denotes the concentration needed for an effect of 90%. With `O=c1[nH]cnc2c([C@@H]3N[C@H](CO)[C@@H](O)[C@H]3O)c[nH]c12` [Forodesine, forodesine], the “100% CPE Inhibitory Concentration (CPEIC100)” value was determined as 1.69 ± 0.06 µM, the EC90 was found to be 2200 ± 60 nM and the “time to maximal effectiveness against the Omicron variant particles” value is 4 to 10 h. In addition, the EC50 under setting [1] was about 700 nM. The EC50 under setting [2] came to 730 ± 40 nM. Also, the “100% CPE Inhibitory Concentration (CPEIC100)” value (listed as forodesine) amounted to 1.69 µM.

Regarding `CC(C)Nc1nc2cc(Cl)c(Cl)cc2n1[C@H]1O[C@@H](CO)[C@H](O)[C@@H]1O` [Maribavir, maribavir], the “100% CPE Inhibitory Concentration (CPEIC100)” value was 7.97 ± 0.27 µM and the EC90 was 12300 ± 330 nM. In addition, the EC50 under setting [1] came to 3050 ± 130 nM. The EC50 under setting [2] was 3200 ± 140 nM.

Regarding `CC(C)C(=O)OC[C@H]1O[C@@H](n2ccc(NO)nc2=O)[C@H](O)[C@@H]1O` [Molnupiravir, molnupiravir], the “100% CPE Inhibitory Concentration (CPEIC100)” value is 6.28 µM and 6.28 ± 0.28 µM; the EC90 is 9100 ± 310 nM. Moreover, the EC50 under setting [1] is 2610 ± 100 nM. The concentration giving a half-maximal response (EC50) under setting [2] amounted to 2730 ± 110 nM.

On to `COc1nc(N)nc2c1ncn2[C@@H]1O[C@H](CO)[C@@H](O)[C@@H]1O` [Nelarabine, nelarabine], for which the EC90 was 6460 ± 180 nM. For the same compound, the half-maximal effective concentration (EC50) under setting [1] amounted to 1680 ± 80 nM. Under setting [2], the EC50 was found to be 1750 ± 80 nM.

Consider `CCC(CC)COC(=O)[C@H](C)N[P@](=O)(OC[C@H]1O[C@@](C#N)(c2ccc3c(N)ncnn23)[C@H](O)[C@@H]1O)Oc1ccccc1` [Remdesivir, remdesivir], for which the “100% CPE Inhibitory Concentration (CPEIC100)” value is 5.99 µM and 5.99 ± 0.20 µM; the EC90 turned out to be 8010 ± 290 nM. Further, the EC50 under setting [1] was 2070 ± 80 nM.

Turning to `CC(C)=CCNc1ncnc2c1ncn2[C@@H]1O[C@H](CO)[C@@H](O)[C@H]1O` [Riboprine, N^6-(2-Isopentenyl)adenosine], the “100% CPE Inhibitory Concentration (CPEIC100)” value is 1.21 µM and 1.21 ± 0.04 µM; the 90% effect concentration (EC90) worked out at 1710 ± 50 nM; the “time to maximal effectiveness against the Omicron variant particles” value lay within 4 to 10 h. For the same compound, the concentration for a half-maximal effect (EC50) under setting [1] was about 450 nM. Also, under setting [2], the EC50 came out at 480 ± 30 nM.

In the case of `OC[C@H]1O[C@@H](n2cnc3c(N[C@@H]4CCOC4)ncnc32)[C@H](O)[C@@H]1O` [Tecadenoson, tecadenoson], the “100% CPE Inhibitory Concentration (CPEIC100)” value amounted to 7.73 ± 0.23 µM and the EC90 came out at 11900 ± 320 nM. Under setting [1], the EC50 was 2900 ± 100 nM. Also, under setting [2], the concentration giving a half-maximal response (EC50) came to 2950 ± 110 nM.

For `Nc1ncnc2c1ncn2[C@@H]1O[C@H](CO)[C@@H](O)[C@@H]1O` [Vidarabine, Arabinosyladenine], the “100% CPE Inhibitory Concentration (CPEIC100)” value was 8.10 ± 0.25 µM and the EC90 was 12600 ± 350 nM. The concentration giving a half-maximal response (EC50) under setting [1] turned out to be 3200 ± 130 nM. Besides, under setting [2], the EC50 stood at 3230 ± 130 nM.
